One series has as its system mesenteric artery. The series is described as follows: Relaxation of rabbit mesenteric artery contracted with KCl (isolated helical strip). Type of series: cell-based. Particulars: Oryctolagus cuniculus; concentration for 50% relaxation (complete relaxation = 100%); KCl 15-20 mM contraction; read-out: Relaxation of Mesenteric Artery ED50. Here is the method:
When, for example, N-(2-guanidinoethyl)-5-isoquinolinesulfonamide, i.e., compound (2) was added and a complete relaxation was designated 100%, the concentration which could bring about a relaxation of 50%, i.e., ED50 was 1 μM.
After a home bred rabbit of a Japanese species weighing about 3 Kg was subjected to bloodletting, resulting in death and then to abdominal incision, the mesenteric artery was taken out, cut into helicoids of 2 mm×25 mm and suspended in a 20 ml organ bath filled with a Krebs-Henseleit solution into which a mixed gas of 95% by volume of O2 and 5% by volume of CO2 was introduced and one end of the artery was connected with an isometric transducer. When a load of 1.5 g was applied to the artery, the contraction and the relaxation of the artery were recorded as a weight on the transducer (a product of Nippon Koden K.K., Japan, "FD Pickup TB-912T"). The relaxation of the mesenteric artery was observed by adding the isoquinolinesulfonamide derivatives and their pharmaceutically acceptable acid addition salts of this invention to the mesenteric artery at the condition of about one half of the maximum contraction with KCl concentration of 15-20 mM. When the complete relaxation of the mesenteric artery was designated 100%, the concentration of the isoquinolinesulfonamide derivatives and their pharmaceutically acceptable acid addition salts which brought about a relaxation of 50% is shown in Table 26.

Another series deals with femoral artery. The series is described as follows: Effect on blood flow volume in femoral artery of anesthetized dogs. Type of series: in vivo, dog of mixed breed. Particulars: intravenous. How it is done: (§1) The effect of the isoquinolinesulfonamide derivatives and the pharmaceutically acceptable acid addition salts of this invention on the vasodilatation of the femoral and vertebral arteries can be measured by anesthetizing a dog of mixed breed weighing 8 to 15 Kg by an intravenous administration of 35 mg/Kg of pentbarbital, providing an acute type probe (a product of Nippon Koden K.K., Japan) with the femoral and vertebral arteries, administering the isoquinolinesulfonamide derivatives and the pharmaceutically acceptable acid addition salts to the femoral vein through a polyethylene tube inserted into the femoral vein side chain and measuring the blood flow volume with an electromagnetic flowmeter (a product of Nippon Koden K.K., Japan, "MFV-1200"). 1 mg/Kg of N-(2-guanidinoethyl)-5-isoquinolinesulfonamide, i.e., Compound (2) was intravenously administered, the increased blood flow volumes in the vertebral artery and in the femoral artery were 95% and 37%. And the duration time is more than 30 minutes.
(§2) The effect on the vasodilatation of the femoral and vertebral arteries was measured by anesthetizing a dog of mixed breed weighing 8 to 15 Kg by an intravenous administration of 35 mg/Kg of pentbarbital, providing an acute type probe (a product of Nippon Koden K.K., Japan) with the femoral and vertebral arteries, administering to the femoral vein through a polyethylene tube inserted into the femoral vein side chain, measuring the blood flow volume with an electromagnetic blood flowmeter (a product of Nippon Koden K.K., Japan, "MFV-1200") and measuring the change of blood pressure.

A further series deals with vertebral artery. The series is described as follows: Effect on blood flow volume in vertebral artery of anesthetized dogs. Particulars: intravenous. It counts as in vivo, dog of mixed breed. How it is done:
as §1, §2

Series [1] in a line: Hypotensive action (change of blood pressure) in anesthetized dogs. It counts as in vivo, dog of mixed breed. Particulars: intravenous. How it is done:
as §2

The subject of series [2] is femoral and vertebral arteries. The series is described as follows: Duration time of effect in anesthetized dogs (blood flow volume / blood pressure). It counts as in vivo, dog of mixed breed. Particulars: intravenous. Here is the method:
as §1, §2

Another series can be described thus: Acute toxicity in mice. Particulars: mouse, in vivo; intravenous administration, male ddY-strain mice; hydrochloric acid salt. How it is done: The acute toxicity of the N-(2-guanidinoethyl)-5-isoquinolinesulfonamide dihydrochloride was measured by giving male ddY-strain mouse and rat an intravenous administration and an oral administration.
The acute toxicity of the hydrochloric acid salt of other compounds was measured by giving male ddY-strain mice an intravenous administration.

These results are taken from patent US4709032A, “Isoquinolinesulfonamide derivatives” (Asahi Kasei Kogyo Kabushiki Kaisha, priority 1982, dated 1987).

Where only a bound is given, the exact number is not on record here.

Regarding `CCC(CNS(=O)(=O)c1cccc2cnccc12)NC(=N)N` (centres unmarked) [Compound 17, N-(2-Guanidinobutyl)-5-isoquinolinesulfonamide], in the series on mesenteric artery, the EC50 was found to be 10 µM.

`N=C(N)NCC(CCNS(=O)(=O)c1cccc2cnccc12)c1ccccc1` (centres unmarked) [Compound 37, N-(4-Guanidino-3-phenylbutyl)-5-isoquinolinesulfonamide]: the EC50 in the series on mesenteric artery was determined as 10 µM.

Consider `CC1CN(S(=O)(=O)c2cccc3cnccc23)C(C)CN1C(=N)N` (centres unmarked) [Compound 49, 4-Amidino-2,5-dimethyl-1-(5-isoquinolinesulfonyl)piperazine], for which the EC50 in the series with mesenteric artery was found to be 1 µM.

`N=C(N)NCC(CNS(=O)(=O)c1cccc2cnccc12)Cc1ccccc1` (centres unmarked) [Compound 34, N-(3-Guanidino-2-benzylpropyl)-5-Isoquinolinesulfonamide]: the EC50 with mesenteric artery amounted to 2 µM.

As to `CC(C)C(CNS(=O)(=O)c1cccc2cnccc12)NC(=N)N` (centres unmarked) [Compound 19, N-(2-Guanidino-3-methylbutyl)-5-isoquinolinesulfonamide], the EC50 in the series with mesenteric artery was 15 µM.

Turning to `CNC(=N)NCCNS(=O)(=O)c1cccc2cnccc12` [Compound 52, N-[2-(3-Methylguanidino)ethyl]-5-isoquinolinesulfonamide], in the series with mesenteric artery, the EC50 is 7 µM.

As for `N=C(N)NCC(CCCNS(=O)(=O)c1cccc2cnccc12)Cc1ccccc1` (centres unmarked) [Compound 38, N-(5-Guanidino-4-benzylpentyl)-5-isoquinolinesulfonamide], in the series on mesenteric artery, the EC50 was 11 µM.

With `N=C(N)NCCCCCCCCCCNS(=O)(=O)c1cccc2cnccc12` [Compound 8, N-(10-Guanidinodecyl)-5-isoquinolinesulfonamide], the EC50 with mesenteric artery came to 15 µM.

For the molecule `N=C(N)NCCCC(CNS(=O)(=O)c1cccc2cnccc12)Cc1ccccc1` (centres unmarked) [Compound 39, N-(5-Guanidino-2-benzylpentyl)-5-isoquinolinesulfonamide], the EC50 with mesenteric artery turned out to be 13 µM.

As for `N=C(N)NC(CNS(=O)(=O)c1cccc2cnccc12)c1ccccc1` (centres unmarked) [Compound 25, N-(2-Guanidino-2-phenylethyl)-5-isoquinolinesulfonamide], the EC50 in the series on mesenteric artery was found to be 10 µM.

Consider `CCN=C(N)NCCNS(=O)(=O)c1cccc2cnccc12` [Compound 55, N-[2,(3-Ethylguanidino)ethyl]-5-isoquinolinesulfonamide], for which the EC50 with mesenteric artery turned out to be 5 µM.

As to `N=C(N)NCCCCCNS(=O)(=O)c1cccc2cnccc12` [Compound 5, N-(5-Guanidinopentyl)-5-isoquinolinesulfonamide], in the series with mesenteric artery, the EC50 came out at 3 µM.

As for `CC(CNC(=N)N)NS(=O)(=O)c1cccc2cnccc12` (centres unmarked) [Compound 9, N-[(2-Guanidino-1-methyl)ethyl]-5-isoquinolinesulfonamide], the EC50 in the series with mesenteric artery stood at 3 µM.

`O=S(=O)(NCCNC1=NCCCN1)c1cccc2cnccc12` [Compound 51, 2-[2-(5-Isoquinolinesulfonamido)ethylamino]-1,4,5,6-tetrahydropyrimidine]: the EC50 in the series on mesenteric artery was found to be 25 µM.

Turning to `CC(CCNS(=O)(=O)c1cccc2cnccc12)CNC(=N)N` (centres unmarked) [Compound 36, N-(4-Guanidino-3-methylbutyl)-5-isoquinolinesulfonamide], the EC50 in the series with mesenteric artery came to 5 µM.

On to `CCN=C(NCC)NCCNS(=O)(=O)c1cccc2cnccc12` [Compound 54, N-[2-(2,3-Diethylguanidino)ethyl]-5-isoquinolinesulfonamide], for which the EC50 in the series with mesenteric artery worked out at 12 µM.

In the case of `N=C(N)NC(CCNS(=O)(=O)c1cccc2cnccc12)Cc1ccccc1` (centres unmarked) [Compound 35, N-(3-Guanidino-4-phenylbutyl)-5-isoquinolinesulfonamide], the EC50 in the series with mesenteric artery was 5 µM.

In the case of `CC(CNC(=N)N)CNS(=O)(=O)c1cccc2cnccc12` (centres unmarked) [Compound 28, N-(3-Guanidino-2-methylpropyl)-5-isoquinolinesulfonamide], the EC50 in the series with mesenteric artery came out at 3 µM.

On to `N=C(N)NCCCCCCCCNS(=O)(=O)c1cccc2cnccc12` [Compound 7, N-(8-Guanidinooctyl)-5-isoquinolinesulfonamide], for which, in the series with mesenteric artery, the EC50 came out at 10 µM.

Turning to `N=C(N)NCC(NS(=O)(=O)c1cccc2cnccc12)c1ccccc1` (centres unmarked) [Compound 23, N-(2-Guanidino-1-phenylethyl)-5-isoquinolinesulfonamide], in the series on mesenteric artery, the EC50 turned out to be 8 µM.

On to `CC(CNS(=O)(=O)c1cccc2cnccc12)NC(=N)N` (centres unmarked) [Compound 16, N-(2-Guanidinopropyl)-5-isoquinolinesulfonamide], for which the EC50 in the series on mesenteric artery was determined as 3 µM.

In the case of `CN=C(NC)NCCNS(=O)(=O)c1cccc2cnccc12` [Compound 53, N-[2-(2,3-Dimethylguanidino)ethyl]-5-isoquinolinesulfonamide], the EC50 in the series on mesenteric artery is 10 µM.

For the molecule `N=C(N)N1CCN(S(=O)(=O)c2cccc3cnccc23)CC1` [Compound 44, 4-Amidino-1-(5-isoquinolinesulfonyl)piperazine], the EC50 in the series with mesenteric artery was determined as 0.6 µM. The “Increased Blood Flow Volume in Femoral Artery” value with femoral artery (0.5 (mm/Kg [sic])) was 29%. Besides, in the series on vertebral artery (0.5 (mm/Kg [sic])), the “Increased Blood Flow Volume in Vertebral Artery” value is reported as 60%. Moreover, the “Average Decreased Blood Pressure” value in series [1] (0.5 (mm/Kg [sic])) was 50 mmHg. For the same molecule, the “Duration Time” value in series [2] (0.5 (mm/Kg [sic])) is > 30 min. In addition, the LD50 in “Acute toxicity in mice” amounted to 12 mg/kg.

Regarding `N=C(N)N1CCCN(S(=O)(=O)c2cccc3cnccc23)CC1` [Compound 45, 4-Amidino-1-(5-isoquinolinesulfonyl)homopiperazine], in the series with mesenteric artery, the EC50 was 2 µM.

For the molecule `N=C(N)NCCCCCCNS(=O)(=O)c1cccc2cnccc12` [Compound 6, N-(6-Guanidinohexyl)-5-isoquinolinesulfonamide], in the series on mesenteric artery, the EC50 worked out at 4 µM.

Regarding `N=C(N)NCCCCNS(=O)(=O)c1cccc2cnccc12` [Compound 4, N-(4-Guanidinobutyl)-5-isoquinolinesulfonamide], the EC50 in the series with mesenteric artery worked out at 2 µM.

Regarding `N=C(N)NCCNS(=O)(=O)c1cccc2cnccc12` [Compound 2, N-(2-Guanidinoethyl)-5-isoquinolinesulfonamide], in the series with mesenteric artery, the EC50 was 1 µM. In addition, the “Increased Blood Flow Volume in Femoral Artery” value with femoral artery (1 mg/Kg (mm/Kg [sic])) is on record as 37%. Also, in the series on vertebral artery (1 mg/Kg (mm/Kg [sic])), the “Increased Blood Flow Volume in Vertebral Artery” value is recorded as 95%. Besides, the “Average Decreased Blood Pressure” value in series [1] (1 (mm/Kg [sic])) came out at 32 mmHg. Further, the “Duration Time” value in series [2] (1 mg/Kg (table prints mm/Kg), 1 mg/kg) was > 30 min; in series [2] (1 mg/Kg (table prints mm/Kg), listed as Compound (2), 1 mg/kg), “more than 30 Min”.

On to `N=C(N)NCCCNS(=O)(=O)c1cccc2cnccc12` [Compound 3, N-(3-Guanidinopropyl)-5-isoquinolinesulfonamide], for which the EC50 in the series on mesenteric artery amounted to 2 µM.

With `CC(NC(=N)N)C(C)NS(=O)(=O)c1cccc2cnccc12` (centres unmarked) [Compound 41, N-(2-Guanidino-1-methylpropyl)-5-isoquinolinesulfonamide], the EC50 in the series with mesenteric artery came out at 8 µM.

Take `O=S(=O)(NCCNC1=NCCN1)c1cccc2cnccc12` [Compound 50, 2-[2-(5-Isoquinolinesulfonamido)ethylaminol]-2-imidazoline]: the EC50 in the series with mesenteric artery was 20 µM. Moreover, the “Increased Blood Flow Volume in Femoral Artery” value in the series on femoral artery (1 mg/Kg (mm/Kg [sic])) amounted to 19%. The “Increased Blood Flow Volume in Vertebral Artery” value in the series with vertebral artery (1 mg/Kg (mm/Kg [sic])) is 65%. Further, the “Average Decreased Blood Pressure” value in series [1] (1 (mm/Kg [sic])) came to 10 mmHg. For the same molecule, in series [2] (1 mg/Kg (mm/Kg [sic])), the “Duration Time” value is 21 min.

For `CCCCC(CNC(=N)N)NS(=O)(=O)c1cccc2cnccc12` (centres unmarked) [Compound 13, N-[(1-Guanidinomethyl)pentyl]-5-isoquinolinesulfonamide], the EC50 with mesenteric artery was found to be 13 µM.

For `CCC(CNC(=N)N)NS(=O)(=O)c1cccc2cnccc12` (centres unmarked) [Compound 10, N-[(1-Guanidinomethyl)propyl]-5-isoquinolinesulfonamide], the EC50 with mesenteric artery came to 5 µM.

As to `N=C(N)NCC(Cc1ccccc1)NS(=O)(=O)c1cccc2cnccc12` (centres unmarked) [Compound 24, N-(2-Guanidino-1-benzylethyl)-5-isoquinolinesulfonamide], the EC50 with mesenteric artery was 10 µM.

Broadly, the LD50 is the dose at which mortality reaches 50%.
